Type in all cases: functional
The nature of assay [1]: Tested for minimum concentration for hemolysis of fresh human erythrocytes.
For assay [2], the system named is Bacillus subtilis. Briefly: Ratio of minimum hemolysis concentration to that of minimum inhibitory concentration.
Assay [3] has as its system Bacillus subtilis. In words: Inhibitory activity was determined against bacillus subtilis (ATCC 82).

Each structure is given as a SMILES string. ≈ marks a conversion by molar mass, not a printed value. Non-standard residues stand in square brackets, D forms with d. Residues, ends and D or L forms follow the SMILES beside them. Orn = NCCC[C@H](N)C(=O)O

`CC(C)C[C@@H]1NC(=O)[C@H](C)NC(=O)[C@H](C(C)C)NC(=O)[C@H](Cc2ccc(O)cc2)NC(=O)[C@H](CCC(N)=O)NC(=O)[C@H](CC(N)=O)NC(=O)[C@@H](Cc2ccccc2)NC(=O)[C@H](Cc2ccccc2)NC(=O)[C@@H]2CCCN2C(=O)[C@@H](Cc2ccccc2)NC1=O` gave an MHC in assay [1] of 13 µg/mL. Besides, the Ratio in the assay with Bacillus subtilis [2] worked out at 1. In the assay with Bacillus subtilis [3], this compound came in with an MIC of 13 µg/mL (≈ 10.6 µM).
Regarding `CC(C)C[C@@H]1NC(=O)[C@H](CCCN)NC(=O)[C@H](C(C)C)NC(=O)[C@H](Cc2ccc(O)cc2)NC(=O)[C@H](C(C)C)NC(=O)[C@H](CC(N)=O)NC(=O)[C@@H](Cc2ccccc2)NC(=O)[C@H](Cc2ccccc2)NC(=O)[C@@H]2CCCN2C(=O)[C@@H](Cc2ccccc2)NC1=O`, the MHC in assay [1] stood at 35 µg/mL. Besides, the Ratio in the assay with Bacillus subtilis [2] was 12. In addition, in the assay on Bacillus subtilis [3], the MIC is 2.9 µg/mL (≈ 2.34 µM).
Compound `CC(C)C[C@@H]1NC(=O)[C@H](CCCN)NC(=O)[C@H](C(C)C)NC(=O)[C@H](Cc2ccc(O)cc2)NC(=O)[C@H](CCC(N)=O)NC(=O)[C@H](CC(N)=O)NC(=O)[C@@H](C)NC(=O)[C@H](Cc2ccccc2)NC(=O)[C@@H]2CCCN2C(=O)[C@@H](Cc2ccccc2)NC1=O` returned an MHC in assay [1] of 47 µg/mL. In addition, in the assay with Bacillus subtilis [2], the Ratio stood at 4.7. For the same compound, in the assay on Bacillus subtilis [3], the MIC is 10 µg/mL (≈ 8.37 µM).
With `CC(C)C[C@@H]1NC(=O)[C@H](CCCN)NC(=O)[C@H](C(C)C)NC(=O)[C@H](Cc2ccc(O)cc2)NC(=O)[C@H](C)NC(=O)[C@H](CC(N)=O)NC(=O)[C@@H](Cc2ccccc2)NC(=O)[C@H](Cc2ccccc2)NC(=O)[C@@H]2CCCN2C(=O)[C@@H](Cc2ccccc2)NC1=O`, the MHC in assay [1] amounted to 28 µg/mL. For the same compound, in the assay on Bacillus subtilis [2], the Ratio turned out to be 19. This compound yielded an MIC in the assay with Bacillus subtilis [3] of 1.5 µg/mL (≈ 1.24 µM).
The matching figures for `CC(C)C[C@@H]1NC(=O)[C@H](CCCN)NC(=O)[C@H](C(C)C)NC(=O)[C@H](Cc2ccc(O)cc2)NC(=O)[C@H](CCCCN)NC(=O)[C@H](CC(N)=O)NC(=O)[C@@H](Cc2ccccc2)NC(=O)[C@H](Cc2ccccc2)NC(=O)[C@@H]2CCCN2C(=O)[C@@H](Cc2ccccc2)NC1=O` (cyclo(F[dF]NKYV[Orn]L[dF]P)): 99 µg/mL, 90 and 1.1 µg/mL (≈ 0.866 µM).
As to `CC(C)C[C@@H]1NC(=O)[C@H](CCCN)NC(=O)[C@H](C(C)C)NC(=O)[C@H](Cc2ccc(O)cc2)NC(=O)[C@H](CCCN)NC(=O)[C@H](CC(N)=O)NC(=O)[C@@H](Cc2ccccc2)NC(=O)[C@H](Cc2ccccc2)NC(=O)[C@@H]2CCCN2C(=O)[C@@H](Cc2ccccc2)NC1=O` (cyclo(F[dF]N[Orn]YV[Orn]L[dF]P)), the MHC in assay [1] amounted to 25 µg/mL. Besides, the Ratio with Bacillus subtilis [2] is given as 125. Besides, the MIC against Bacillus subtilis [3] stood at 0.2 µg/mL (≈ 0.159 µM).
Regarding `CC(C)C[C@@H]1NC(=O)[C@H](CCCN)NC(=O)[C@H](C(C)C)NC(=O)[C@H](Cc2ccc(O)cc2)NC(=O)[C@H](CCC(N)=O)NC(=O)[C@H](CC(N)=O)NC(=O)[C@@H](Cc2ccccc2)NC(=O)[C@H](Cc2ccccc2)NC(=O)[C@@H]2CCCN2C(=O)[C@@H](Cc2ccccc2)NC1=O` [TYROCIDINE A] (cyclo(F[dF]NQYV[Orn]L[dF]P)), the MHC in assay [1] was found to be 8.2 µg/mL. In addition, in the assay with Bacillus subtilis [2], the Ratio was determined as 1. The same compound had an MIC against Bacillus subtilis [3] of 8.3 µg/mL (≈ 6.53 µM).

In general, MIC refers to the least concentration at which growth counts as inhibited.

The values are drawn from ChEMBL document CHEMBL1145752, “Dissociation of antibacterial and hemolytic activities of an amphipathic peptide antibiotic” (2003).
